# Reference: patent US11384379B2, “Method for producing a protein and disaccharide using a Talaromyces cellulolyticus” (AJINOMOTO CO., INC., priority 2017, dated 2022)
# B1: GH1-2: beta-glucosidase of T. cellulolyticus (SEQ ID NO: 23), His-tag at the C-terminus, expressed in E. coli and purified (protein, listed as Talaromyces cellulolyticus)
# chain: MGSVTSTNGETPQSKLPADFVWGYATASYQIEGAYDEDGRGPSIWDTFSKTPGKVEDGTNGDVACDSYHRTHEDIAILKQYGAKLYRFSLSWPRIIPLGGRNDPINQKGIDFYSKFIDDLHAAGIEPFVTLYHWDLPDELFKRYGGPLNKDEFVADYANFARIAFQSFGHKVKHWVTFNEPWCSSVLGFNIGKHAPGRTSDRKKNPVGDGVREPWIAGHSLLVAHGTAVDIYRKEFKPTQGGEIGITLNGDWAEPWDPEDPEDIEACTRKLEFAISWFADPIYLGKYPDSVVKQIGDRLPPLTPDEVALIKGSNDFYGMNHYCANYIRHREGEADPDDTAGNLDHLFEDKFGNSIGPETNCEWLRPHPLGFRKLLKWLSDRYGYPKIYVTENGTSIKGENDLPLEELLNDEFRVQYYRDYVGAMADAATFDGVNVKKYMAWSLMDNFEWSEGYQSRFGVTYVDYKDNQKRIPKKSALVIGELFNKYISKE
# modifications: C-terminal His-tag
# B2: BGL3A: major extracellular-secretion type beta-glucosidase of T. cellulolyticus (SEQ ID NO: 38), tested as culture supernatant of strain F09pyr+ (protein, listed as Talaromyces cellulolyticus)
# chain: MYSAFLLLLASATPIVSAQSASWSAAYSKATAALSKLSQNDKIGMVTGVGWGKGPCVGNTAAPSGISFPSLCIQDSPLGVRYANPVTAFPAGTNAGMTWDRTLMNQRGAALGAESKGLGVHVQLGPVAGPLGKIAQGGRGWEGFGTDPYLSGVAMIETISGMQSSGTQACAKHYIGNEQELNRESMSSNIDDRTLHELYLWPFADAVRANVASVMCSYNQINGTFSCENEESMTGILKTELGFPGYIMSDWDAQHTTVTSANSGLDMTMPGSDYSDTPSSVLWGQNLANAISSGQVAQSRLDDMVTRILAAWYLVGQDQGFPAVAFNSWTGGQASVNVTSNHNQVARAVARDSIVLLKNTNSTLPLNKPSSIAIIGTDAQTNPSGPNACTDRGCDTGTLAMGWGSGTCQFPYLTDPLTAIKTRAASDGTTITTSISDNGSAGASVAQSAEYAIVFINSDSGEGYITVEGVAGDRNNLDPWHSGNALVQSVAAVNKKTIVVIHSVGPVILETILAQPNVVAVVWAGIPGQESGSALTDILYGSTAPSGKLTYTIAKQASDYGTAVVSGSDNYPEGLFIDYRHFDKSNIEPRYEFGYGLSYTTFGYTNLAIDITVSTGPTTGQIVPGGPSDLFESVGTVTVQVANTGSVAGSEVAQLYIGLPSSAPSSPPKQLRGFDKLSLAAGASGTATFDLTRRDLSYWDVSKQKWVVPSGAFTVYVGASSRDIRLQGTFTPGGSSTTSTITSSKTSTTISTSVTTSSSTTAKTTTTSSTTSSAGPTQTPYGQCGGQGWTGPTVCSSGWTCKVTNQWYSQCLQ
# Assays:
# [1] = tested on: T. cellulolyticus strains F09pyr+ and F09Δgh1-2; test: Halo assay for secretory cellulase by various beta-linked glucose oligosaccharides (CMC minimal medium, Congo Red); format: cell-based, Talaromyces cellulolyticus; settings: 30° C. for 36 hours
# Method: The strains F09pyr+ and F09Δgh1-2 were each grown on the minimal medium containing glucose as the carbon source for 3 days. […] After the culture, a Congo Red solution obtained by mixing 50 mM sodium phosphate buffer (pH 7.0) and 2 mg/ml Congo Red (Nacalai Tesque) in a volume ratio of 10:1 was added to the plate so that the Congo Red solution covered the entire plate, and the plate was left to stand for 30 minutes at a room temperature. Then, the Congo Red solution on the plate was removed, and sodium phosphate buffer (50 mM, pH 7.0) was added to the plate so that the sodium phosphate buffer covered the entire plate. The plate was again left to stand for 30 minutes at a room temperature. Then, the sodium phosphate buffer on the plate was removed, the surface of the plate was dried lightly, and observation of halo was carried out.
# [2] = tested on: HSA expressing strain derived from the T. cellulolyticus strain F09ΔyscB; settings: feeding solution Gentiobiose 80 g/L vs Cellobiose 80 g/L; 45 hours
# Method: The HSA expressing strain derived from the T. cellulolyticus strain F09ΔyscB was inoculated into PD medium, and cultured at 30° C. One agar disk excised from around the edge of a formed colony was inoculated into 20 mL of a liquid culture medium containing 20 g/L glucose, 24 g/L KH2PO4, 5 g/L (NH4)2SO4, 2 g/L Urea, 1.2 g/L MgSO4-7H2O, 0.01 g/L ZnSO4-7H2O, 0.01 g/L MnSO4-5H2O, 0.01 g/L CuSO4-5H2O, 1 g/L Corn steep liquor (C4648, SIGMA), and 1 g/L Tween 80, and gyratory culture (220 rpm) was carried out at 30° C. for 5 days as a pre-culture. Then, 15 mL of the pre-culture broth was inoculated into 300 mL of a liquid culture medium containing 15 g/L glucose, 12 g/L KH2PO4, 10 g/L (NH4)2SO4, 1.2 g/L MgSO4-7H2O, 0.01 g/L ZnSO4-7H2O, 0.01 g/L MnSO4-5H2O, 0.01 g/L CuSO4-5H2O, 5 g/L Corn steep liquor, 1 g/L Tween 80, and 0.5 mL/L DISFOAM GD (NOF CORPORATION) in a jar fermenter, and fed-batch culture was carried out for 45 hours at a culture temperature of 30° C. and an aeration volume of 1/2 vvm, while controlling the dissolved oxygen concentration to be 5% or higher of the saturated oxygen concentration by stirring and controlling the pH to be 5 with using ammonia gas. […]
# HSA was quantified by ELISA using Albumin ELISA Quantitation Kit, Human (Bethyl Laboratories, inc.).
# [3] = tested on: T. cellulolyticus strain F09ΔcreA; test: Cellulase production fed-batch culture using gentiobiose, filter paper degradation activity; format: cell-based, Talaromyces cellulolyticus; settings: carbon source other than glucose in the feed solution, compared with cellobiose; 72 hours
# Method: The T. cellulolyticus strains F09ΔcreA and F09Δgh1-2ΔcreA were each inoculated into PD medium, and cultured at 30° C. One agar disk excised from around the edge of a formed colony was inoculated into 20 mL of a liquid culture medium containing 20 g/L glucose, 24 g/L KH2PO4, 5 g/L (NH4)2SO4, 2 g/L Urea, 1.2 g/L MgSO4-7H2O, 0.01 g/L ZnSO4-7H2O, 0.01 g/L MnSO4-5H2O, 0.01 g/L CuSO4-5H2O, 1 g/L Corn steep liquor (C4648, SIGMA), and 1 g/L Tween 80, and gyratory culture (220 rpm) was carried out at 30° C. for 5 days as a pre-culture. […]
# The filter paper degradation activity (FPU/ml) of the obtained enzyme solutions was measured according to the following procedure, and the yield of the activity per carbon source was calculated on the basis of the consumption amount of sugar during the cultures by which the respective enzyme solutions were obtained.
# To a 100-μl aliquot of a citrate buffer (50 mM, pH 5.0) containing a filter paper (Whatman No. 1, GE Healthcare) cut to 6 mm×10 mm, 50 μl of an appropriately diluted sample were added, and a reaction was carried out at 50° C. for 1 hour. […] Then, the absorbance at 540 nm of the supernatant was measured, and the value of the blank was subtracted therefrom, to calculate an increase in absorbance. […]
# [4] = tested on: T. cellulolyticus strains F09pyrF+, F09Δgh1-2, F09Δbgl3A, and F09Δgh1-2Δbgl3A; test: Plate halo assay of double deficient strain of GH1-2 and BGL3A with or without gentiobiose; format: cell-based, Talaromyces cellulolyticus; settings: 1 mM gentiobiose in combination with double disruption of the gh1-2 gene and the bgl3A gene; 5 days
# Method: (§1) The strains F09pyrF+ and F09Δgh1-2 constructed in Example (1-1), the strain F09Δbgl3A constructed in Example (5-1), and the strain F09Δgh1-2Δbgl3A constructed in Example (7-1) were each grown on the minimal medium containing CMC as the carbon source and on the minimal medium containing CMC as the carbon source and 1 mM gentiobiosefor 5 days according to the procedure described in Example (1-4). After the culture, a Congo Red solution obtained by mixing 50 mM sodium phosphate buffer (pH 7.0) and 2 mg/ml Congo Red (Nacalai Tesque) in a volume ratio of 10:1 was added to the plate so that the Congo Red solution covered the whole of the plate, and the plate was left to stand for 30 minutes at a room temperature. Then, the Congo Red solution on the plate was removed, and sodium phosphate buffer (50 mM, pH 7.0) was added to the plate so that the sodium phosphate buffer covered the whole of the plate. The plate was again left to stand for 30 minutes at a room temperature. Then, the sodium phosphate buffer on the plate was removed, the surface of the plate was dried lightly, and the diameter and width of the visualized halo were measured.
# [5] = tested on: T. cellulolyticus strains Y-94, W363Frep, W449Frep, and C267Prep; test: Halo assay of strains Y-94, W363Frep, W449Frep, C267Prep with or without gentiobiose; format: cell-based, Talaromyces cellulolyticus; settings: 1 mM gentiobiose in combination with W363F, W449F or C267P mutation in the gh1-2 gene; 5 days
# Method: as §1, with “Y-94, W363Frep, W449Frep,” for “F09pyrF+”, “C267Prep” for “F09Δgh1-2 constructed in Example (1-1), the strain F09Δbgl3A constructed in Example (5-1), and the strain F09Δgh1-2Δbgl3A constructed in Example (7-1)”
# [6] = Reaction of purified GH1-2 with high-concentration glucose, products by ion-exchange chromatography; format: biochemical; settings: 1.4 g/L enzyme
# Method: The purified GH1-2 was added to a 40% glucose aqueous solution at a concentration of 1.4 g/L, and reaction was carried out at 40° C. for 24 hours, to thereby obtain a sample. This sample was diluted 1000-fold with ion-exchanged water, and subjected to ion-exchange chromatography, to thereby analyze the reaction product. As a result, generation of beta-linked glucose oligosaccharides such as gentiobiose by GH1-2 was confirmed (FIG. 4).
# The purified GH1-2 obtained in Example (2-1) was added to a 560 g/L glucose solution at a concentration of 1.4 g/L, to thereby obtain a reaction mixture. The reaction mixture was stirred so as to be uniform, and then left to stand at a room temperature for 52 hours. Then, the reaction mixture was heated at 95° C. for 10 minutes, to thereby obtain a saccharide solution containing gentiobiose. It was confirmed by the ion-exchange chromatography mentioned above that the saccharide solution contains 35.04 g/L gentiobiose.
# [7] = Reaction of GH1-2s with cellobiose, products by TLC and ion exchange chromatography; format: biochemical; settings: 30 μg/mL enzyme, 2% cellobiose aqueous solution, 40° C. for 1 to 60 minutes
# Method: The purified GH1-2 was added to a 2% cellobiose aqueous solution at a concentration of 30 μg/mL, and a reaction solution after reaction at 40° C. for 1 to 60 minutes was used as a sample solution. The sample solution in 3 μL portions was spotted and developed on a thin layer chromatography plate (Merck) having a silica layer having a thickness of 200 μm, a size of 20×20 cm, and an average pore diameter of 60 angstroms. The composition of the developing solvent was chloroform:methanol:pure water=30:20:5 by volume ratio. An aniline phthalate method for detecting a reducing group was used for color development detection. […]
# (§2) The reaction mixture obtained by using the wild-type GH1-2 was subject to ion exchange chromatography under the conditions described in Example (2-2), and the reaction product was analyzed, and observation of the hydrolysis product and the transglycosylation product was carried out over time. […]
# as §2, with “Similarly, the” for “The”, “W363F mutant” for “wild-type”, “(2-2),” for “(2-2), and”, “time, and the result was compared with that observed when using the wild-type GH1-2 was observed.” for “time.”
# [8] = Generation of gentiobiose from cellulosic substrate/glucose by culture supernatant containing BGL3A; format: biochemical; settings: enzyme solution, no cellulosic substrate added, glucose 0-14.4 wt %, 50° C. for 24 hours
# Method: (§3) The strains F09Δbgl3A and F09pyr+ were each inoculated into a 1/2 PDA plate, and cultured at 30° C. for 3 days. […] Sampling was appropriately carried out, cells were removed using a 0.22 μm syringe filter, and the obtained culture supernatant was used as an enzyme solution. Thereby, an enzyme solution derived from the strain F09Δbgl3A not containing BGL3A (hereinafter, also referred to as “-BGL3A”) and an enzyme solution derived from the strain F09pyr+ containing BGL3A (hereinafter, also referred to as “+BGL3A”) were prepared.
# The reaction was carried out by placing 10 g of the reaction solution (Table 5) in a 50-ml tube and shaking the tube at 90 rpm at 50° C. for 24 hours.
# [9] = Generation of gentiobiose from cellobiose by culture supernatant containing BGL3A; format: biochemical; settings: enzyme solution, 50° C. for 24 hours
# Method: as §3
# The two enzyme solutions obtained in Example (5-2) were used to degrade cellobiose, which is a decomposition product of a cellulosic substrate, under conditions of containing a certain concentration of glucose, and the product was analyzed. The reaction was carried out by placing 10 g of the reaction solution (Table 6) in a 50-ml tube and shaking the tube at 90 rpm at 50° C. for 24 hours.
molecule,measurement,setting,value
"O=C[C@H](O)[C@@H](O)[C@H](O[C@@H]1O[C@H](CO)[C@@H](O)[C@H](O)[C@H]1O)[C@H](O)CO [cellobiose, reference compound]",complementation of the decrease in the ability for secretory production of cellulase due to deletion of the gh1-2 gene (halo),[1]; 1 mM in CMC minimal medium,scarcely able to complement the decrease in the ability for secretory production of cellulase
gentiobiose,secretory production amount of HSA,[2],greater in the case of feeding gentiobiose than in the case of feeding cellobiose
same,"efficiency of cellulase production (filter paper degradation activity, yield per carbon source)",[3],cellulase production with higher efficiency
same,secretory production of cellulase (width of degradation halo),[4],secretory production of cellulase is synergistically improved
same,secretory production of cellulase (diameter and width of degradation halo),[5],secretory production of cellulase is synergistically improved
same,complementation of the decrease in the ability for secretory production of cellulase due to deletion of the gh1-2 gene (halo),[1]; 0.01 mM in CMC minimal medium,complemented the decrease in the ability for secretory production of cellulase more strongly than other beta-linked glucose oligosaccharides
same,complementation of the decrease in the ability for secretory production of cellulase due to deletion of the gh1-2 gene (halo),[1]; 1 mM in CMC minimal medium,strongly complements the decrease in the ability for secretory production of cellulase
B1,activity on glucose (generation of beta-linked glucose oligosaccharides such as gentiobiose),"[6]; 40% glucose aqueous solution, 40° C. for 24 hours",has a transglycosylation activity
same,gentiobiose contained in the saccharide solution after reaction,"[6]; 560 g/L glucose solution, room temperature for 52 hours",35.04 g/L
same,activity on cellobiose (reaction products by TLC),[7],has not only a hydrolysis activity but also has a transglycosylation activity
B2,generation of gentiobiose from glucose,[8],can generate gentiobiose from glucose in a concentration-dependent manner
same,generation of gentiobiose from cellobiose,[9],can generate gentiobiose from cellobiose
